Assay type in all cases: binding
Experiment [1] concerns the target T1, ApoE3 (Homo sapiens, UniProt P02649).
T1 construct: gene APOE; His6-thioredoxin tag removed by HRV 3C protease; E. coli Rosetta2(DE3)
Briefly: isothermal titration calorimetry (protein injected into compound). The text has this: isothermal titration calorimetry (protein injected into compound) on ApoE3
In general terms: ITC needs no label: the signal is the heat of the interaction.

The target of experiment [2] is T2, ApoE2 (Homo sapiens, UniProt P02649, R176C).
T2 construct: gene APOE; His6-thioredoxin tag removed by HRV 3C protease; E. coli Rosetta2(DE3)
T2 sequence (P02649 19-317 R176C): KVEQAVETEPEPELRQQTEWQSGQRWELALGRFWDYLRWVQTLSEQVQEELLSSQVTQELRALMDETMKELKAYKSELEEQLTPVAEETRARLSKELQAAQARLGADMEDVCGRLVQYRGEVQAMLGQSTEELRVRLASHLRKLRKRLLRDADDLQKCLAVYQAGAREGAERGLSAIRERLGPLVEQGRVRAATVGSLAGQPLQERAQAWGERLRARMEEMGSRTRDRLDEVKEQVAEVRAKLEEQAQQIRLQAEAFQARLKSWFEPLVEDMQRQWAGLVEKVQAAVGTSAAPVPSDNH
Described as above. The text has this: isothermal titration calorimetry (protein injected into compound) on ApoE2

The target in experiment [3] is T3, ApoE4 (Homo sapiens, UniProt P02649, C130R).
T3 construct: gene APOE; full-length mature ApoE4, codon-optimized gene in pET17b; His6-thioredoxin tag removed by HRV 3C protease; E. coli Rosetta2(DE3)
T3 sequence (P02649 19-317 C130R): as the sequence (P02649 19-317 R176C) above, with C112R, C158R counted along it
Described as above.

For experiment [4], the target named is T3, ApoE4. Briefly: microscale thermophoresis (Red-NHS labelled ApoE4, initial fluorescence). The text has this: microscale thermophoresis (Red-NHS labelled ApoE4, initial fluorescence) on ApoE4

Each structure is given as a SMILES string.

T1 sequence (P02649 19-317): as the sequence (P02649 19-317 R176C) above, with C158R counted along it

Turning to `CCN(CC)CCOc1ccc(C(=C(Cl)c2ccccc2)c2ccccc2)cc1` [Clomifene], the figures for the Kd in experiment [1], in experiment [2] and in experiment [3] (read-out: ApoE4) were 24 ± 9 µM, 67 ± 36 µM and 15 ± 10 µM, respectively.

In the case of `N[C@@H](Cc1cc(I)c(Oc2cc(I)c(O)c(I)c2)c(I)c1)C(=O)O` [L-Thyroxine], the Kd in experiment [1] was 20 ± 3 µM; in experiment [2], 33 ± 10 µM; in experiment [3] (read-out: ApoE4), 18 ± 12 µM.

Turning to `Cc1ccc(Cl)c(Nc2ccccc2C(=O)O)c1Cl` [Meclofenamic acid], the Kd in experiment [1] worked out at 47 ± 9 µM; in experiment [2], 47 ± 32 µM; in experiment [3] (read-out: ApoE4), 45 ± 13 µM.

Turning to `O=C(O)c1cc2ccccc2c(Cc2c(O)c(C(=O)O)cc3ccccc23)c1O` [Pamoic acid], the Kd in experiment [1] worked out at 119 ± 50 µM; in experiment [2] it was 55 ± 14 µM; in experiment [3] (read-out: ApoE4), 38 ± 4 µM.

As for `Cc1ccc(C(=O)Nc2ccc(S(=O)(=O)O)c3cc(S(=O)(=O)O)cc(S(=O)(=O)O)c23)cc1NC(=O)c1cccc(NC(=O)Nc2cccc(C(=O)Nc3cc(C(=O)Nc4ccc(S(=O)(=O)O)c5cc(S(=O)(=O)O)cc(S(=O)(=O)O)c45)ccc3C)c2)c1` [Suramin], the Kd in experiment [3] (read-out: binding affinity) amounted to 3 ± 0.4 µM.

On to `O=C(O)c1ccc2nc(-c3cc(Cl)cc(Cl)c3)oc2c1` [Tafamidis], for which the Kd in experiment [1] was determined as 8 ± 1 µM; in experiment [2], 6 ± 2 µM; in experiment [3] (read-out: ApoE4) it was 8 ± 2 µM.

As to `CC/C(=C(\c1ccccc1)c1ccc(OCCN(C)C)cc1)c1ccccc1` [Tamoxifen], the Kd in experiment [4] was 67 ± 19 µM.

`CN(C)CCOc1ccc(/C(=C(/CCCl)c2ccccc2)c2ccccc2)cc1` [Toremifene] showed a Kd in experiment [4] of 44 ± 6 µM.

The values are drawn from paper PMC6406525, “A Biophysical Approach to the Identification of Novel ApoE Chemical Probes” (Biomolecules, 2019).
